This assay deals with apomorphine climbing. Put plainly: Neuroleptic activity in the climbing mice assay (apomorphine-induced climbing). The conditions noted are these: Mus musculus, ip, intraperitoneal 30 min before apomorphine 1.5 mg/kg s.c., climbing scored at 10, 20 and 30 min, linear regression. It counts as in vivo, mice (CK-1 male). On the procedure: The subject CK-1 male mice (23-27 grams) are group-housed under standard laboratory conditions. The mice are individually placed in wire mesh stick cages (4"×4" by 10") and are allowed one hour for adaptation and exploration of the new environment.
For evaluation of climbing, 3 readings are taken at 10, 20 and 30 minutes after apomorphine administration according to the following scale: […]
Mice consistently climbing before the injection of apormorphine will be discarded.
With full-developed apomorphine climbing, the animals are hanging onto the cage walls, rather motionless, over longer periods of time. By contrast, climbs due to mere motor stimulation usually only last a few seconds.
The climbing scores are individually totaled (maximal score: 6 per mouse over 3 readings) and the total score of the control group (vehicle intraperitoneally--apomorphine subcutaneously) is set to 100%.

Setting [1] is: read-out: NEUROLEPTIC ACTIVITY (ED50 mg/kg).

Structures can show the parent of a compound that is named as a salt. Where two headings read alike, the source gives them in different places.

Consider `Cl.O=C(CCCN1CCC(c2noc3cc(Cl)ccc23)CC1)c1ccc(F)cc1` [3-[1-(4-Fluorobenzoylpropyl)-4-piperidyl]-6-chloro-1,2-benzisoxazole hydrochloride], for which the ED50 under setting [1] amounted to 0.27 mg/kg.

As for `Fc1ccc2c(CCCN3CCC(c4noc5ccc(F)cc45)CC3)noc2c1` [3-[1-(6-Fluoro-1,2-benzisoxazol-3-propyl)-4-piperidyl]-5-fluoro-1,2-benzisoxazole hydrochloride], under setting [1], the ED50 amounted to 3.4 mg/kg.

For the compound `COc1ccc2onc(C3CCN(CCCc4noc5cc(F)ccc45)CC3)c2c1` [3-[1-(6-Fluoro-1,2-benzisoxazole-3-propyl)-4-piperidyl]-5-methoxy-1,2-benzisoxazole hydrobromide], the ED50 under setting [1] amounted to 7.23 mg/kg.

Consider `O=c1[nH]c2ccccc2n1CCCN1CCC(c2noc3ccccc23)CC1` [3-{1,3-dihydro-2-oxo-2H-benzmidazol-1-ylpropyl]-4-piperidyl}-1,2-benzisoxazole], for which, under setting [1], the ED50 was determined as 0.36 mg/kg.

Take `Br.O=c1[nH]c2ccccc2n1CCN1CCC(c2noc3ccccc23)CC1` [3-{1-[1,3-Dihydro-2-oxo-2H-benzimidazol-1-ylethyl]-4-piperidyl}1,2-benzisoxazole hydrobromide]: the ED50 under setting [1] is 7.7 mg/kg.

As for `Fc1ccc(C(CCCN2CCC(c3noc4ccc(F)cc34)CC2)c2ccc(F)cc2)cc1` [3-{1-[4,4-bis-Fluorophenyl)-1-butyl]-4-piperidyl}-5-fluoro-1,2-benzisoxazole hydrochloride], the ED50 under setting [1] was 1.6 mg/kg.

As to `Cc1[nH]c2ccccc2c1CCCN1CCC(c2noc3cc(F)ccc23)CC1` [3-{3-[4-(6-Fluoro-1,2-benzisoxazol-3-yl)piperidyl]propyl}-2-methylindole], the ED50 under setting [1] came to 0.16 mg/kg.

With `Cl.Fc1ccc(C(CCCN2CCC(c3noc4cc(Cl)ccc34)CC2)c2ccc(F)cc2)cc1` [6-Chloro-3{1-[4,4-bis(4-fluorophenyl)-1-butyl]-4-piperidyl}-1,2-benzisoxazole hydrochloride], the ED50 under setting [1] was found to be 6.4 mg/kg.

Turning to `Fc1ccc(C(CCCN2CCC(c3noc4cc(F)ccc34)CC2)c2ccc(F)cc2)cc1` [6-Fluoro-3-{1-[4,4-bis(4-fluorophenyl)-1-butyl]-4-piperidyl]-1,2-benzisoxable hydrobromide], the ED50 under setting [1] worked out at 0.58 mg/kg.

Regarding `O=C(CCCN1CCC(O)(c2ccc(Cl)cc2)CC1)c1ccc(F)cc1` [haloperidol, reference compound], under “read-out: N[…] (ED50 mg/kg)”, the ED50 stood at 0.11 mg/kg.

As to `CCN1CCCC1CNC(=O)c1cc(S(N)(=O)=O)ccc1OC` (centres unmarked) [sulpiride, reference compound], the ED50 under setting [1] was 14.5 mg/kg.

The record behind these values is patent US4352811A, “3-(1-Substituted-4-piperidyl)-1,2-benzisoxazoles” (Hoechst-Roussel Pharmaceuticals Inc., priority 1981, dated 1982).
